Test results taken from patent US20230286958A1, “PLASMA KALLIKREIN INHIBITORS” (Merck Sharp & Dohme LLC, priority 2020, published 2023).

Experiments:
[1] = target: human Factor XIa (Homo sapiens (Human), UniProt P03951); assay: Factor XIa Assay (fluorogenic substrate GPR-AFC); format: biochemical; conditions: Factor XIa (FXIa)
[2] = target: Human plasma kallikrein (Homo sapiens (Human), UniProt P03952); assay: Kallikrein Assay (fluorogenic substrate Acetyl-K-P-R-AFC); format: biochemical; conditions: Plasma Kallikrein (PKal)
Human plasma kallikrein, sequence (P03952 391-638): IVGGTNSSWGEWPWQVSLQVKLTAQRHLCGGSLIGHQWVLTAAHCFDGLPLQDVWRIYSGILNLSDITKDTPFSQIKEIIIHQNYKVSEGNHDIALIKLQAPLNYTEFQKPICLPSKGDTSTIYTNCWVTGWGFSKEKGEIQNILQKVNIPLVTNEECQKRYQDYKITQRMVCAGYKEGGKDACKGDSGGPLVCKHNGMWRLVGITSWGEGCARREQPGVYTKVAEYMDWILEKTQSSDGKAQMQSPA
Human plasma kallikrein, sequence (P03952 20-390 partner): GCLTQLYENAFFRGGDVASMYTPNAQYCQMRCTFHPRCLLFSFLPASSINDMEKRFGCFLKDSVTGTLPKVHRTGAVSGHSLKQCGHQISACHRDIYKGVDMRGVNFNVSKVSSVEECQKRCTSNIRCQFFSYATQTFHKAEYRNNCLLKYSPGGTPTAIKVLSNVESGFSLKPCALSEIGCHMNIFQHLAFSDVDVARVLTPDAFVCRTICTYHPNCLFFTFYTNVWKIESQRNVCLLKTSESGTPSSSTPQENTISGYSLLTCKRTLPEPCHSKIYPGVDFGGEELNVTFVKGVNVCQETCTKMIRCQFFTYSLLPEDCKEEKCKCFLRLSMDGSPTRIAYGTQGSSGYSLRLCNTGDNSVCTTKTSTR
Method in brief: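 Ki is derived from IC50 with the Cheng-Prusoff equation, and IC50 from the inflection point of a four-parameter logistic curve. The rate of AFC release is read with 0.5 nM purified enzyme and […] substrate at room temperature or 37 °C.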

human Factor XIa, sequence (P03951 388-625 limits assumed): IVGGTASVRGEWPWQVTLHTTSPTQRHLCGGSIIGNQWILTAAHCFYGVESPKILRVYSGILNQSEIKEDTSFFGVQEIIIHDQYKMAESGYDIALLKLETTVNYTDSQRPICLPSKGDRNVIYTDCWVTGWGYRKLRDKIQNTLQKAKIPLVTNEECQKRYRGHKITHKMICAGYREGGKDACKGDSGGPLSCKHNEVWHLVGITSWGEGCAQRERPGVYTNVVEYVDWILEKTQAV
human Factor XIa, sequence (P03951 19-387 partner limits assumed): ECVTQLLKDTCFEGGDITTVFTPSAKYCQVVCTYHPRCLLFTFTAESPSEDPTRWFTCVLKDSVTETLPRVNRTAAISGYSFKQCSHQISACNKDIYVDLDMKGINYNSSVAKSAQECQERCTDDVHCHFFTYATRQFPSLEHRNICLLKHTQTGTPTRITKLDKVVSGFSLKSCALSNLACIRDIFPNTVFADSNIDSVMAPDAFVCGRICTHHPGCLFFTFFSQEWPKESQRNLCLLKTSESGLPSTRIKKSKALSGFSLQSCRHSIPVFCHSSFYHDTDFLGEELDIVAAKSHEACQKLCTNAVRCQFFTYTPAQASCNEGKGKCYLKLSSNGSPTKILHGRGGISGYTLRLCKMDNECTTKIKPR

Structure (SMILES) | IC50 [1] | IC50 [2]
CC(c1cnc(N2C[C@H]3C[C@H]3C2=O)c2c1OCO2)n1cc(NC(=O)c2cncc(-c3c(C(F)F)ccc(Cl)c3F)n2)cn1 (single isomer, unassigned) [Example 251, 6-(3-Chloro-6-(difluoromethyl)-2-fluorophenyl)-N-(1-((R or S)-1-(4-((1R,5S)-2-oxo-3-azabicyclo[3.1.0]hexan-3-yl)-[1,3]dioxolo[4,5-c]pyridin-7-yl)ethyl)-1H-pyrazol-4-yl)pyrazine-2-carboxamide] | 2480 nM | 1 nM
Cc1nc(N2C[C@H]3C[C@H]3C2=O)ncc1[C@@H](C)n1cc(NC(=O)c2cncc(-c3c(C(F)F)ccc(Cl)c3F)n2)cn1 [Example 23, 6-(3-Chloro-6-(difluoromethyl)-2-fluorophenyl)-N-(1-((R)-1-(4-methyl-2-((1R,5S)-2-oxo-3-azabicyclo[3.1.0]hexan-3-yl)pyrimidin-5-yl)ethyl)-1H-pyrazol-4-yl)pyrazine-2-carboxamide] | 7600 nM | 48.7 nM
Cc1ncc(-c2c(C(F)F)ccc(Cl)c2F)nc1C(=O)Nc1cnn(C(C)c2cnc(N3C[C@H]4C[C@H]4C3=O)c(F)c2C)c1 (single isomer, unassigned) [Example 127, 6-(3-Chloro-6-(difluoromethyl)-2-fluorophenyl)-N-(1-((S or i)-1-(5-fluoro-4-methyl-6-((1R,5S)-2-oxo-3-azabicyclo[3.1.0]hexan-3-yl)pyridin-3-yl)ethyl)-1H-pyrazol-4-yl)-3-methylpyrazine-2-carboxamide] | 596 nM | 0.5 nM
Cc1ccc(Cl)c(F)c1-c1cncc(C(=O)Nc2cnn(C(C)c3cnc(N4C[C@H]5C[C@H]5C4=O)nc3C)c2)n1 (single isomer, unassigned) [Example 108, 6-(3 -Chloro-2-fluoro-6-methylphenyl)-N-(1-((S or R)-1-(4-methyl-2-((1R,5S)-2-oxo-3-azabicyclo[3.1.0]hexan-3-yl)pyrimidin-5-yl)ethyl)-1H-pyrazol-4-yl)pyrazine-2-carboxamide] | > 10000 nM | 16.6 nM
Cc1nc(Cn2cc(NC(=O)c3nc(-c4c(C(F)F)ccc(Cl)c4F)cnc3C)cn2)ccc1N1C[C@H]2C[C@H]2C1=O [Example 63, 6-(3-Chloro-6-(difluoromethyl)-2-fluorophenyl)-3-methyl-N-(1-((6-methyl-5-((1R,SS)-2-oxo-3-azabicyclo[3.1.0]hexan-3-yl)pyridin-2-yl)methyl)-1H-pyrazol-4-yl)pyrazine-2-carboxamide] | > 10000 nM | 1.7 nM
Cc1nc(N2C[C@H]3C[C@H]3C2=O)ncc1Cn1cc(NC(=O)c2nc(-c3c(C(F)F)ccc(Cl)c3F)cc(=O)n2C)cn1 [Example 81, 4-(3-Chloro-6-(difluoromethyl)-2-fluorophenyl)-1-methyl-N-(1-((4-methyl-2-((1R,5S)-2-oxo-3-azabicyclo[3.1.0]hexan-3-yl)pyrimidin-5-yl)methyl)-1H-pyrazol-4-yl)-6-oxo-1,6-dihydropyrimidine-2-carboxamide] | 94 nM | 1.8 nM
Cc1nc(C(C)n2cc(NC(=O)c3cncc(-c4c(C(F)F)ccc(Cl)c4F)n3)cn2)ccc1N1C[C@H]2C[C@H]2C1=O (single isomer, unassigned) [Example 60, 6-(3-Chloro-6-(difluoromethyl)-2-fluorophenyl)-N-(1-((S or R)-1-(6-methyl-5-((1R,5S)-2-oxo-3-azabicyclo[3.1.0]hexan-3-yl)pyridin-2-yl)ethyl)-1H-pyrazol-4-yl)pyrazine-2-carboxamide] | > 10000 nM | 5.5 nM
Cc1c(N2C[C@H]3C[C@H]3C2=O)cnc(C(C)n2cc(NC(=O)c3cncc(-c4c(C(F)F)ccc(Cl)c4F)n3)cn2)c1C (single isomer, unassigned) [Example 243, 6-(3-Chloro-6-(difluoromethyl)-2-fluorophenyl)-N-(1-((R or S)-1-(3,4-dimethyl-5-((1R,5S)-2-oxo-3-azabicyclo[3.1.0]hexan-3-yl)pyridin-2-yl)ethyl)-1H-pyrazol-4-yl)pyrazine-2-carboxamide] | > 10000 nM | 0.6 nM
Cc1cc([C@@H](C)n2cc(NC(=O)c3nc(-c4c(OC(F)F)ccc(Cl)c4F)cnc3CO)cn2)cnc1N1C[C@H]2C[C@H]2C1=O [Example 227, 6-(3-Chloro-6-(difluoromethoxy)-2-fluorophenyl)-3-(hydroxymethyl)-N-(1-((R)-1-(5-methyl-6-((1R,5S)-2-oxo-3-azabicyclo[3.1.0]hexan-3-yl)pyridin-3-yl)ethyl)-1H-pyrazol-4-yl)pyrazine-2-carboxamide] | 25 nM | 0.6 nM

Further lines, results first:

IC50 [1] | IC50 [2] | Structure (SMILES)
6900 nM | 11.2 nM | Cc1nc(N2C[C@H]3C[C@H]3C2=O)ncc1[C@@H](CO)n1cc(NC(=O)c2cncc(-c3c(C(F)F)ccc(Cl)c3F)n2)cn1 [Example 159, 6-(3-Chloro-6-(difluoromethyl)-2-fluorophenyl)-N-(1-((S)-2-hydroxy-1-(4-methyl-2-((1R,5S)-2-oxo-3-azabicyclo[3.1.0]hexan-3-yl)pyrimidin-5-yl)ethyl)-177-pyrazol-4-yl)pyrazine-2-carboxamide]
4550 nM | 5.3 nM | C[C@@H](c1cnc(N2C[C@H]3C[C@H]3C2=O)nc1)n1cc(NC(=O)c2nc(-c3c(C(F)F)ccc(Cl)c3F)cnc2C(O)C(F)(F)F)cn1 (single isomer, unassigned) [Example 176, 6-(3-Chloro-6-(difluoromethyl)-2-fluorophenyl)-N-(1-((S)-1-(2-((1R,5S)-2-oxo-3-azabicyclo[3.1.0]hexan-3-yl)pyrimidin-5-yl)ethyl)-1H-pyrazol-4-yl)-3-((S or R)-2,2,2-trifluoro-1-hydroxyethyl)pyrazine-2-carboxamide]
4830 nM | 1.1 nM | Cc1ncc(-c2c(C(F)F)ccc(Cl)c2F)nc1C(=O)Nc1cnn(C(C)c2cnc(N3C[C@H]4C[C@H]4C3=O)c(F)c2)c1 (single isomer, unassigned) [Example 52, 6-(3-Chloro-6-(difluoromethyl)-2-fluorophenyl)-N-(1-((R or S)-1-(S-fluoro-6-((1R,5S)-2-oxo-3-azabicyclo[3.1.0]hexan-3-yl)pyridin-3-yl)ethyl)-1H-pyrazol-4-yl)-3-methylpyrazine-2-carboxamide]
> 10000 nM | 11.9 nM | O=C(Nc1cnn(Cc2cnc(N3C[C@H]4C[C@H]4C3=O)c(Cl)c2)c1)c1cncc(-c2c(C(F)F)ccc(Cl)c2F)n1 [Example 8, N-(1-((5-Chloro-6-((1R,5S)-2-oxo-3-azabicyclo[3.1.0]hexan-3-yl)pyridin-3-yl)methyl)-1H-pyrazol-4-yl)-6-(3-chloro-6-(difluoromethyl)-2-fluorophenyl)pyrazine-2-carboxamide]
4080 nM | 19.5 nM | Cc1nc(C(C)n2cc(NC(=O)c3cncc(-c4c(C(F)(F)F)ccc(Cl)c4F)n3)cn2)cnc1N1C[C@H]2C[C@H]2C1=O (single isomer, unassigned) [Example 18]
935 nM | 1.8 nM | Cc1ncc(-c2c(C(F)F)ccc(Cl)c2F)nc1C(=O)Nc1cnn(Cc2cnc(N3C[C@H]4C[C@H]4C3=O)c(F)c2)c1 [Example 82, 6-(3-Chloro-6-(difluoromethyl)-2-fluorophenyl)-N-(1-((5-fluoro-6-((1R,5S)-2-oxo-3-azabicyclo[3.1.0]hexan-3-yl)pyridin-3-yl)methyl)-1H-pyrazol-4-yl)-3-methylpyrazine-2-carboxamide]
4690 nM | 27.7 nM | O=C(Nc1cnn(Cc2cnc(N3C[C@H]4C[C@H]4C3=O)nc2)c1)c1cncc(-c2c(C(F)F)ccc(Cl)c2F)n1 [Example 25, 6-(3-Chloro-6-(difluoromethyl)-2-fluorophenyl)-N-(1-((2-((1R,5S)-2-oxo-3-azabicyclo-[3.1.0]hexan-3-yl)pyrimidin-5-yl)methyl)-1H-pyrazol-4-yl)pyrazine-2-carboxamide]
> 10000 nM | 46.8 nM | Cc1ncc(-c2c(C(F)F)ccc(Cl)c2F)nc1C(=O)Nc1cnn(C(C)c2ncc(N3C[C@H]4C[C@H]4C3=O)c(C)c2F)c1 (single isomer, unassigned) [Example 244, 6-(3-Chloro-6-(difluoromethyl)-2-fluorophenyl)-N-(1-((R or S)-1-(3-fluoro-4-methyl-5-((1R,5S)-2-oxo-3-azabicyclo[3.1.0]hexan-3-yl)pyridin-2-yl)ethyl)-1H-pyrazol-4-yl)-3-methylpyrazine-2-carboxamide]
765 nM | 18.2 nM | Cc1nc(N2C[C@H]3C[C@H]3C2=O)ncc1C(C)n1cc(NC(=O)c2nc(-c3c(C(F)F)ccc(Cl)c3F)cnc2CO)cn1 (single isomer, unassigned) [Example 195, 6-(3-Chloro-6-(difluoromethyl)-2-fluorophenyl)-3-(hydroxymethyl)-N-(1-((R or S)-1-(4-methyl-2-((1R,5S)-2-oxo-3-azabicyclo[3.1.0]hexan-3-yl)pyrimidin-5-yl)ethyl)-1H-pyrazol-4-yl)pyrazine-2-carboxamide]
7010 nM | 38 nM | Cc1ncc(-c2c(C(F)F)ccc(Cl)c2F)nc1C(=O)Nc1cnn(Cc2ccc(N3C[C@H]4C[C@H]4C3=O)nn2)c1 [Example 21, 6-(3-Chloro-6-(difluoromethyl)-2-fluorophenyl)-3-methyl-N-(1-((6-((1R,5S)-2-oxo-3-azabicyclo[3.1.0]hexan-3-yl)pyridazin-3-yl)methyl)-1H-pyrazol-4-yl)pyrazine-2-carboxamide]
1380 nM | 2.4 nM | Cc1ncc(-c2c(C(F)F)ccc(Cl)c2F)nc1C(=O)Nc1cnn(C(C)c2cnc(N3C[C@H]4C[C@H]4C3=O)c(F)c2)c1 (single isomer, unassigned) [Example 51, 6-(3-Chloro-6-(difluoromethyl)-2-fluorophenyl)-N-(1-((S or R)-1-(5-fluoro-6-((1R,SS)-2-oxo-3-azabicyclo[3.1.0]hexan-3-yl)pyridin-3-yl)ethyl)-1H-pyrazol-4-yl)-3-methylpyrazine-2-carboxamide]
